Measurements as given in patent publication US9316631B1, “ER-stress inducing compounds and methods of use thereof” (Whitehead Institute for Biomedical Research, priority 2012, dated 2016).
Where two headings read alike, the source gives them in different places.

What was measured:
[1] = tested on: IDMS cells (HMLE_shEcad, HMLE_Twist) versus control HMLE_shGFP cells; assay: Dose-response cell survival, ATP-based luminescence assay, HMLE cells; set-up: species or system human; conditions: for killing of IDMS cells relative to control HMLE cells: 3 days, FIG. 3B, 3C
Procedure: (B) Dose response curves of HMLE_shGFP, HMLE_shEcad and HMLE_Twist cells treated with various concentrations of Cmp302, Cmp308 and Dev4, respectively for 3 days. Cell survival was determined using an ATP-based luminescence assay.
(B) Dose-response curves of HMLE_shGFP, HMLE_shEcad and HMLE_Twist cells treated with various concentrations of Thapsigargin, DTT and A23187 for 3 days. Cell survival was determined using an ATP-based luminescence assay.
(B) Dose-response curves indicating viability of Dev2-treated cell lines
(§1) Cells (3000/well) were plated in 100 μl per well in 96-well plates. One day (24 hr) after seeding, compounds were added in 8 different doses at three replicates per dose for each cell line. Cell viability was measured after 72 hr with the CellTiter-Glo […] Assay (Promega). Paclitaxel, Doxorubicin, Tunicamycin, Thapsigargin, A23187 and DTT were purchased from Sigma Aldrich. Cmp302 and Cmp308 were purchased from Biointerscreen.

[2] = tested on: UPR signaling in HMLER_shGFP and HMLER_Twist cells; assay: UPR signaling (Western blot, XBP1 RT-PCR, ATF6 reporter, qPCR); format: cell-based, human
Procedure: (A) Expression of UPR pathway components in HMLER_shGFP and HMLER_Twist cells that were treated with Dev2, Cmp302, Dev4 or DMSO solvent for 6 h. Western blot analysis for phospho-eIF2α, total eIF2α, CHOP and β-Tubulin. RT-PCR analysis of XBP1 and XBP1 splice variant and GAPDH transcripts.
(D) Western blot analysis of HMLER_shGFP and HMLER_Twist cells treated with vehicle (DMSO), DTT or A23187 for 4 h and probed for p-eIF2α, total eIF2α, CHOP and β-Tubulin (loading control). RT-PCR analysis of XBP1 and XBP1 splice variant and GAPDH transcripts.
(E) Western blot analysis of HMLER_shGFP and HMLER_Twist cells treated with vehicle (DMSO), Tunicamycin or Thapsigargin for 4 h and probed for p-eIF2α, total eIF2α, CHOP and β-Tubulin (loading control). RT-PCR analysis of XBP1 and XBP1 splice variant and GAPDH transcripts.
Reporter activity for each cell line was normalized relative to DMSO treatment.
BIP expression was normalized relative to GAPDH for each sample.
(C) ATF6 activation of HMLER_shGFP and HMLER_Twist cells in response to Tunicamycin, Thapsigargin, DTT and A23187 were measured by ATF6 reporter assay. Reporter activity for each cell line was normalized relative to DMSO treatment.
(D) qPCR analysis for BIP expression in HMLER_shGFP and HMLER_Twist cells treated with Thapsigargin and DTT. BIP expression was normalized relative to GAPDH for each sample.
(E) qPCR analysis for expression of GADD34 in HMLER_shGFP and HMLER_Twist cells treated with Thapsigargin and DTT. GADD34 expression was normalized relative to GAPDH for each sample.
Western blotting was performed as previously described (Gupta et al., 2009). Antibodies used for immunoblotting were as follows: E-cadherin (BD Transduction), Fibronectin (Abcam), Actin, Cytokeratin 8/18, PERK, eIF2α, peIF2α, CHOP, Caspase-3 and Bip (Cell Signal Technology).
p5xATF6-GL3 and hRluc constructs were obtained from Addgene (plasmids 11976 and 24348, provided by Drs. Ron Prywes and Liqun Luo, resp.). 24 hours after co-transfection of 0.3 μg p5xATF6-GL3 and 0.05 μg hRluc plasmids, cells were treated with indicated compounds for another 6 hours, and ATF6 activity was measured by a dual luciferase assay (Promega).

[3] = tested on: protein secretion of HMLE cells; assay: 35S-methionine/cysteine labeling of secreted proteins, HMLE cells; format: cell-based, human; conditions: control experiment; data not shown
Procedure: (F) Autoradiograph showing ^35S-methionine/cysteine-labeled secreted proteins in IDMS (HMLE_shEcad, HMLE_Twist) and control (HMLE_shGFP) cells. Secreted proteins were harvested at the indicated time points. Quantification of signal in each lane is provided in arbitrary units. The indicated proteins were identified by mass-spectrometry.
(§2) Equal numbers of cells were cultured in the presence of ^35S-methionine/cysteine in medium with reduced methionine/cysteine content and minimal serum. At the indicated timepoints, aliquots of medium were extracted for analysis. Medium was centrifuged at 800×g for 2 min to pellet any whole cell contaminants. Equal volume of medium was reduced in loading buffer, separated by SDS-PAGE and analyzed by autoradiography.
To determine whether overall protein secretion was elevated in IDMS cells, total protein synthesis and secretion was measured using ^35S-methionine/cysteine. Labeled proteins secreted by cells into the culture medium (“secretome”) were visualized by gel electrophoresis and autoradiography. After three hours of ^35S-methionine/cysteine labeling, we observed a 9.6-fold and 13.7-fold increase in the secretome of IDMS cells (HMLE_shEcad and HMLE_Twist, resp.) relative to the control epithelial cells (FIG. 4F).

[4] = tested on: HMLER_shGFP and HMLER_Twist cells; assay: Viability with thapsigargin in presence or absence of salubrinal; format: cell-based, human; conditions: 10 μM salubrinal, 3 days; FIG. 6F
Procedure: (F) Relative viability of HMLER_shGFP and HMLER_Twist cells treated with increasing doses of thapsigargin in the presence or absence of 10 μM salubrinal for 3 days. Cell viability was assayed with an ATP-based luminescence assay.
as §1

[5] = tested on: HMLE_Twist_GFP / HMLE_shEcad_GFP cells mixed 1:1 with HMLE_shGFP_dsRed cells; assay: Co-culture of GFP-labeled IDMS cells with dsRed-labeled control epithelial cells; format: cell-based, human; conditions: 1:1 co-culture, 5 days treatment; FIGS. 1D and E
Procedure: (D) Representative fluorescence images of HMLE_shGFP_dsRed and HMLE_Twist_GFP cells were mixed in a 1:1 ratio and treated with 5 nM Paclitaxel, 2 μM Cmp302, 2 μM Cmp308 or DMSO control. Images after 5 days of treatment are shown. Scale bar: 50 μm
(E) Quantification of HMLE_shGFP_dsRed and HMLE_shEcad_GFP cells that were mixed in a 1:1 ratio and treated with Doxorubicin or Dev4. Following a 5 day treatment, the percentages of dsRed-positive and GFP-positive cells were quantified by FACS.
Even though Cmp302 and Cmp308 were selective for IDMS cells when cultured alone, tumors are comprised of heterogeneous populations of cells that could affect the sensitivity or selectivity of the applied chemicals. Therefore GFP-labeled IDMS cells were co-cultured with dsRed-labeled control epithelial cells and then applied Cmp302 and Cmp308.

MDA-MB-157 cells = assay: Dose-response cell survival of MDA-MB-157 cells in suspension versus adherent culture; format: cell-based, human; conditions: 3 days; FIG. 1I
Procedure: (I) Dose-response curves of MDA-MB-157 cells cultured in adherent or suspension conditions and treated with 8 doses of paclitaxel, Cmp302 or Cmp308 for 3 days. Cell survival was determined using an ATP-based luminescence assay.
as §1
Next, it was determined whether the preferential toxicity of these compounds was unique to the oncogenic modifications of the HMLE breast epithelial cell system. Accordingly, a model was developed in which human breast carcinoma cells progressed towards the IDMS state in the absence of genetic modifications by altering their extracellular contextual signals. […] However, this line adopts an IDMS state when detached from its substratum and cultured in suspension (FIG. 1F). […] This morphologic alteration was accompanied by upregulation of mesenchymal markers (fibronectin) and downregulation of epithelial proteins (cytokeratin 8/18 and E-cadherin) (FIG. 1G). […]

[6] = tested on: MDA-MB-157 cells (CD44hiCD24lo and CD44loCD24hi fractions); assay: Flow cytometry of CD44/CD24 fractions of treated MDA-MB-157 cells; format: cell-based, human; conditions: suspension, 36 h; FIG. 1J
Procedure: (J) MDA-MB-157 cells were treated with Cmp308, paclitaxel or DMSO solvent in suspension for 36 h and analyzed by flow cytometry for CD44 and CD24 expression. The percentage of CD44^hiCD24^lo and CD44^loCD24^hi cells in were quantified and normalized relative to DMSO controls.
FACS analysis was performed according to the manufacturer's protocol (BD Biosciences). Reagents used in FACS were as follows: APC-conjugated anti-CD44 antibody (clone G44-26), PE-conjugated anti-CD24 antibody (clone ML5), and propidium iodide (5 μg/ml) (BD Bioscience).

SUM159 cancer cells [7] = assay: Tumorsphere formation of pretreated SUM159 cells; format: cell-based, human; conditions: pretreatment 3 days (1 μg/ml Tunicamycin, 10 nM Thapsigargin), 3 days recovery
Procedure: (A) Representative brightfield images and quantification of tumorsphere formation of SUM159 cancer cells treated with 5 nM Paclitaxel, 1 μg/ml Tunicamycin, 10 nM Thapsigargin, or DMSO vehicle for 3 days followed by another 3 days of recovery in regular medium. Scale bar: 50 μm
Mammosphere formation assays were performed as described (Dontu et al., 2003), but with 0.6% methylcellulose (Stem Cell Technologies). Five thousand cells were plated per well in low-adherence 24-well plates and cultured for 5-8 days prior to being counted and photographed.
(§3) To determine whether chemical ER perturbants could abrogate the malignancy of IDMS cells, SUM159 cancer cells (derived from a primary anaplastic Basal-B breast carcinoma) were treated with tunicamycin, thapsigargin or paclitaxel at their respective IC75 doses. Cells were then allowed to recover in the absence of treatment prior to subjecting them to functional assays for IDMS-related phenotypes.

SUM159 cancer cells [8] = assay: Transwell migration of pretreated SUM159 cells; format: cell-based, human; conditions: 5 h migration
Procedure: (B) Representative images of crystal violet staining of SUM159 cells following transwell migration assay. Transwell migration assay was performed on SUM159 cancer cells treated as in (A). Cells that have migrated for 5 h following seeding into 8 μm pore inserts were visualize and quantified. Scale bar: 50 μm
as §3

[9] = tested on: protein secretion of SUM159 cells; assay: 35S-methionine/cysteine labeling of secreted proteins, pretreated SUM159 cells; format: cell-based, human; conditions: pretreatment 3 days, recovery 3 days
Procedure: (B) Autoradiograph showing ^35S-methionine/cysteine-labeled secreted proteins in SUM159 cells that were pretreated with 1 μg/ml Tunicamycin, 10 nM Thapsigargin, 0.1 μM A23187 or DMSO vehicle for 3 days and allowed to recover in the absence of chemical for 3 days prior to the ^35S-methionine/cysteine labeling.
as §2

SUM159 cells = assay: Dose-response of pretreated SUM159 cells to paclitaxel or doxorubicin; format: cell-based, human; conditions: pretreated SUM159, then paclitaxel or doxorubicin 3 days; FIG. 7D
Procedure: (D) Dose-response curves of SUM159 cells pre-treated as in (C) and then treated with 8 doses of paclitaxel or doxorubicin for 3 days. Cell survival was determined using an ATP-based luminescence assay.
as §1

[10] = 6 h treatment (Cmp302, Dev4, Dev2) or 4 h (DTT, A23187, tunicamycin, thapsigargin), IDMS versus non-IDMS cells

O[C@H](CS)[C@H](O)CS (racemic) [DTT, dithiothreitol]
killing of IDMS cells relative to control HMLE cells [1]: selective lethality | UPR signaling (XBP1 splicing, eIF2α phosphorylation, ATF6 activation) [2, 10]: selectively induced

CNc1ccc2oc(C[C@H]3O[C@@]4(CC[C@H]3C)O[C@H]([C@H](C)C(=O)c3ccc[nH]3)[C@H](C)C[C@H]4C)nc2c1C(=O)O [A23187]
killing of IDMS cells relative to control HMLE cells [1]: selective lethality | UPR signaling (XBP1 splicing, eIF2α phosphorylation, ATF6 activation) [2]: selectively induced

C[C@H]1CCC/C=C/[C@@H]2C[C@H](O)C[C@H]2[C@H](O)/C=C/C(=O)O1 [Brefeldin-A, Brefeldin A]
protein secretion [3]: completely abolished protein secretion

O=C(/C=C/c1ccccc1)NC(NC(=S)Nc1cccc2cccnc12)C(Cl)(Cl)Cl (centres unmarked) [Salubrinal, salubrinal]
sensitization to thapsigargin treatment [4]: further sensitized HMLER-Twist IDMS, but not control cells

COc1cccc2c1C(=O)c1c(O)c3c(c(O)c1C2=O)C[C@@](O)(C(=O)CO)C[C@@H]3O[C@H]1C[C@H](N)[C@H](O)[C@H](C)O1 [doxorubicin]
effect on IDMS cells in mixed populations [5]: selective expansion of IDMS cells

CC(=O)O[C@H]1C(=O)[C@@]2(C)[C@H]([C@H](OC(=O)c3ccccc3)[C@]3(O)C[C@H](OC(=O)[C@H](O)[C@@H](NC(=O)c4ccccc4)c4ccccc4)C(C)=C1C3(C)C)[C@]1(OC(C)=O)CO[C@@H]1C[C@@H]2O [paclitaxel]
effect on IDMS cells in mixed populations [5]: selective expansion of IDMS cells | toxicity towards IDMS MDA-MB-157 cells in suspension relative to non-IDMS cells in adherent conditions (MDA-MB-157 cells): decreased toxicity | preferential toxicity towards CD44hiCD24lo versus CD44loCD24hi fraction [6]: did not exhibit this preferential toxicity

C/C=C(/C)C(=O)O[C@H]1C(C)=C2[C@H]([C@@H]1OC(=O)CCCCCCC)[C@@](C)(OC(C)=O)C[C@H](OC(=O)CCC)[C@@]1(O)[C@H]2OC(=O)[C@@]1(C)O [thapsigargin]
killing of IDMS cells relative to control HMLE cells [1]: selective lethality | UPR signaling (XBP1 splicing, eIF2α phosphorylation, ATF6 activation) [2, 10]: selectively induced | tumorsphere-forming ability relative to paclitaxel- or DMSO-treated cells (SUM159 cancer cells [7]): significantly reduced | migratory ability relative to paclitaxel-pretreated cells (SUM159 cancer cells [8]): strongly impaired | protein secretion relative to paclitaxel- and DMSO-treated cells [9]: strongly inhibited | sensitization of pretreated cells to chemotherapy (SUM159 cells): sensitized SUM159 cells to paclitaxel and doxorubicin

tunicamycin
IC50 (toxicity) ([1]; both IDMS and control HMLE cells, data not shown): < 10^−10 g/ml | UPR signaling (XBP1 splicing, eIF2α phosphorylation, ATF6 activation) [2, 10]: more readily induced in IDMS cells | dose required for UPR induction relative to toxic dose ([2]; IDMS cells, FIG. 3E): 100 fold | tumorsphere-forming ability relative to paclitaxel- or DMSO-treated cells (SUM159 cancer cells [7]): significantly reduced | migratory ability relative to paclitaxel-pretreated cells (SUM159 cancer cells [8]): strongly impaired | protein secretion relative to paclitaxel- and DMSO-treated cells [9]: strongly inhibited | sensitization of pretreated cells to chemotherapy (SUM159 cells): sensitized SUM159 cells to paclitaxel and doxorubicin
